Experimental data published in patent US20240317780A1, “RADIOPHARMACEUTICAL SOMATOSTATIN RECEPTOR LIGANDS AND PRECURSORS THEREOF” (Technische Universität München, priority 2021, published 2024).

The compounds below were run against T1, SST2 (Homo sapiens, UniProt P30874) (assay: Determination of IC50: competitive binding against [125I]TOC on SST2-transfected CHO cells). Settings: [125I]TOC reference radioligand, 60 min room temperature.
T1 construct: expressed in transfected cells; host or cells: CHO (Chinese hamster ovary) cells
T1 sequence (P30874 whole entry, species assumed): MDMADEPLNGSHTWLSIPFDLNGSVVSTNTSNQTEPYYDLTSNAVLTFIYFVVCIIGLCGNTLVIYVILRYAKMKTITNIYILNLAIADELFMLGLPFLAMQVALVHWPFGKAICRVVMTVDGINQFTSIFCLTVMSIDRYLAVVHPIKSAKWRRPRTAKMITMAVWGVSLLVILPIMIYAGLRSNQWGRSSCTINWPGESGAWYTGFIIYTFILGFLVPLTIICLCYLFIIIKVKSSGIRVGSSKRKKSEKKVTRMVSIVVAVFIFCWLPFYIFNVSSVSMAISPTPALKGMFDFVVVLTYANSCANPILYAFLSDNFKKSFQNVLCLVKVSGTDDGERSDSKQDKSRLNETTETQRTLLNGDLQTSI
Experimental: The SST2-transfected CHO cells were cultivated in Dulbecco's Modified Eagle Medium/Nutrient Mixture F-12 (DMEM/F-12) with Glutamax-I (1:1) (Gibco), supplemented with 10% fetal calf serum (FCS) and maintained at 37° C. in a humidified 5% CO2 atmosphere. […] After removal of the culture medium, the cells were treated once with 300 μL of HBSS-B (Hank's balanced salt solution, Biochrom, Berlin, Germany, with addition of 1% bovine serum albumin (BSA)) and left with 200 μL HBSS-B. Next, 25 μL per well of solutions, containing either HBSS-B (control) or the respective ligand in increasing concentration (10^−10-10^−4 M in HBSS-B, were added with subsequent addition of 25 μL of
[^125I]TOC ([^125I]Tyr^3-Octreotide) (1.0 nM) in HBSS-B. Each concentration is investigated in triplicate. After 60 min incubation at room temperature, the experiment was terminated by removal of the assay medium and consecutive rinsing with 300 μL of cold PBS. The media of both steps were combined in one fraction and represent the amount of unbound radioligand.
Afterwards, the cells were lysed with 300 μL of 1 M NaOH and united with the 300 μL 1 M NaOH of the following wash step. Quantification of bound and unbound radioligand was accomplished in a γ-counter.
`C[C@@H](O)[C@H](NC(=O)C1CSSCC(NC(=O)C(Cc2ccccc2)NC(=O)CNC(=O)CNC(=O)[C@@H](CC(=O)O)NC(=O)C(CC(=O)O)NC(=O)[C@@H](CNC(=O)CC[C@H](C(=O)O)N2CCN(CC(=O)O)CCN(CC(=O)O)CCN(CC(=O)O)CC2)NC(=O)C(CN)NC(=O)c2ccc([Si](F)(C(C)(C)C)C(C)(C)C)cc2)C(=O)N[C@@H](Cc2ccc(O)cc2)C(=O)NC(Cc2c[nH]c3ccccc23)C(=O)N[C@@H](CCCCN)C(=O)N[C@@H]([C@@H](C)O)C(=O)N1)C(=O)O` (stereo partly drawn) (natGa complex, metal not drawn) [[Ga]20] was tested, and the IC50 was 12.7 ± 1 nM. Work on `C[C@@H](O)[C@H](NC(=O)C1CSSCC(NC(=O)C(Cc2ccccc2)NC(=O)CNC(=O)CNC(=O)CNC(=O)C(CC(=O)O)NC(=O)[C@@H](CC(=O)O)NC(=O)C(CNC(=O)C[N+](C)(C)Cc2ccc([Si](F)(C(C)(C)C)C(C)(C)C)cc2)NC(=O)CN2CCN(CC(=O)O)CCN(CC(=O)O)CCN(CC(=O)O)CC2)C(=O)N[C@@H](Cc2ccc(O)cc2)C(=O)NC(Cc2c[nH]c3ccccc23)C(=O)N[C@@H](CCCCN)C(=O)N[C@@H]([C@@H](C)O)C(=O)N1)C(=O)O` (stereo partly drawn) (natGa complex, metal not drawn) [[Ga]44] yielded an IC50 of 5.45 ± 0.5 nM. With `C[C@@H](O)[C@H](NC(=O)C1CSSCC(NC(=O)C(Cc2ccccc2)NC(=O)CNC(=O)CNC(=O)CNC(=O)C(CC(=O)O)NC(=O)[C@@H](CC(=O)O)NC(=O)C(CCC(=O)O)NC(=O)[C@@H](CNC(=O)C[N+](C)(C)Cc2ccc([Si](F)(C(C)(C)C)C(C)(C)C)cc2)NC(=O)CN2CCN(CC(=O)O)CCN(CC(=O)O)CCN(CC(=O)O)CC2)C(=O)N[C@@H](Cc2ccc(O)cc2)C(=O)NC(Cc2c[nH]c3ccccc23)C(=O)N[C@@H](CCCCN)C(=O)N[C@@H]([C@@H](C)O)C(=O)N1)C(=O)O` (stereo partly drawn) (natGa complex, metal not drawn) [[Ga]47] the IC50 was 7.58 ± 0.58 nM. `C[C@@H](O)[C@H](NC(=O)C1CSSCC(NC(=O)C(Cc2ccccc2)NC(=O)[C@@H](CC(N)=O)NC(=O)C(CC(N)=O)NC(=O)[C@@H](CC(=O)O)NC(=O)C(CC(=O)O)NC(=O)[C@@H](CNC(=O)CN2CCN(CC(=O)O)CCN(CC(=O)O)CCN(CC(=O)O)CC2)NC(=O)C[N+](C)(C)Cc2ccc([Si](F)(C(C)(C)C)C(C)(C)C)cc2)C(=O)N[C@@H](Cc2ccc(O)cc2)C(=O)NC(Cc2c[nH]c3ccccc23)C(=O)N[C@@H](CCCCN)C(=O)N[C@@H]([C@@H](C)O)C(=O)N1)C(=O)O` (stereo partly drawn) (natGa complex, metal not drawn) [[Ga]48] gave an IC50 of 6.1 ± 0.57 nM. `C[C@@H](O)[C@H](NC(=O)C1CSSCC(NC(=O)C(Cc2ccccc2)NC(=O)[C@@H](CC(N)=O)NC(=O)C(CC(N)=O)NC(=O)CNC(=O)C(CC(=O)O)NC(=O)[C@@H](CC(=O)O)NC(=O)C(CNC(=O)CN2CCN(CC(=O)O)CCN(CC(=O)O)CCN(CC(=O)O)CC2)NC(=O)C[N+](C)(C)Cc2ccc([Si](F)(C(C)(C)C)C(C)(C)C)cc2)C(=O)N[C@@H](Cc2ccc(O)cc2)C(=O)NC(Cc2c[nH]c3ccccc23)C(=O)N[C@@H](CCCCN)C(=O)N[C@@H]([C@@H](C)O)C(=O)N1)C(=O)O` (stereo partly drawn) (natGa complex, metal not drawn) [[Ga]49] was tested, and the IC50 was 6.31 ± 0.99 nM. Work on `C[C@@H](O)[C@H](NC(=O)C1CSSCC(NC(=O)C(Cc2ccccc2)NC(=O)CNC(=O)CNC(=O)CNC(=O)C(CC(=O)O)NC(=O)[C@@H](CC(=O)O)NC(=O)C(CNC(=O)CN2CCN(CC(=O)O)CCN(CC(=O)O)CCN(CC(=O)O)CC2)NC(=O)[C@@H](CN)NC(=O)C[N+](C)(C)Cc2ccc([Si](F)(C(C)(C)C)C(C)(C)C)cc2)C(=O)N[C@@H](Cc2ccc(O)cc2)C(=O)NC(Cc2c[nH]c3ccccc23)C(=O)N[C@@H](CCCCN)C(=O)N[C@@H]([C@@H](C)O)C(=O)N1)C(=O)O` (stereo partly drawn) (natGa complex, metal not drawn) [[Ga]51] yielded an IC50 of 3.56 ± 0.25 nM. With `C[C@@H](O)[C@H](NC(=O)C1CSSCC(NC(=O)C(Cc2ccccc2)NC(=O)CNC(=O)CNC(=O)CNC(=O)C(CC(=O)O)NC(=O)[C@@H](CC(=O)O)NC(=O)C(CNC(=O)CN2CCN(CC(=O)O)CCN(CC(=O)O)CCN(CC(=O)O)CC2)NC(=O)[C@@H](CN)NC(=O)CNC(=O)C[N+](C)(C)Cc2ccc([Si](F)(C(C)(C)C)C(C)(C)C)cc2)C(=O)N[C@@H](Cc2ccc(O)cc2)C(=O)NC(Cc2c[nH]c3ccccc23)C(=O)N[C@@H](CCCCN)C(=O)N[C@@H]([C@@H](C)O)C(=O)N1)C(=O)O` (stereo partly drawn) (natGa complex, metal not drawn) [[Ga]52] the IC50 was 3.69 ± 0.34 nM. For `C[C@@H](O)[C@H](NC(=O)C1CSSCC(NC(=O)C(Cc2ccccc2)NC(=O)CNC(=O)CNC(=O)CNC(=O)C(CC(=O)O)NC(=O)[C@@H](CC(=O)O)NC(=O)C(CNC(=O)CN2CCN(CC(=O)O)CCN(CC(=O)O)CCN(CC(=O)O)CC2)NC(=O)[C@@H](CN)NC(=O)CNC(=O)CNC(=O)C[N+](C)(C)Cc2ccc([Si](F)(C(C)(C)C)C(C)(C)C)cc2)C(=O)N[C@@H](Cc2ccc(O)cc2)C(=O)NC(Cc2c[nH]c3ccccc23)C(=O)N[C@@H](CCCCN)C(=O)N[C@@H]([C@@H](C)O)C(=O)N1)C(=O)O` (stereo partly drawn) (natGa complex, metal not drawn) [[Ga]53], the IC50 was 3.4 ± 0.18 nM. `C[C@@H](O)[C@H](NC(=O)C1CSSCC(NC(=O)C(Cc2ccccc2)NC(=O)CNC(=O)CNC(=O)[C@@H](CC(=O)O)NC(=O)C(CC(=O)O)NC(=O)[C@@H](CNC(=O)CN2CCN(CC(=O)O)CCN(CC(=O)O)CCN(CC(=O)O)CC2)NC(=O)C(CN)NC(=O)c2ccc([Si](F)(C(C)(C)C)C(C)(C)C)cc2)C(=O)N[C@@H](Cc2ccc(O)cc2)C(=O)NC(Cc2c[nH]c3ccccc23)C(=O)N[C@@H](CCCCN)C(=O)N[C@@H]([C@@H](C)O)C(=O)N1)C(=O)O` (stereo partly drawn) (natLu complex, metal not drawn) [[Lu]19] showed an IC50 of 13.3 ± 1.97 nM. Work on `C[C@@H](O)[C@H](NC(=O)C1CSSCC(NC(=O)C(Cc2ccccc2)NC(=O)CNC(=O)CNC(=O)[C@@H](CC(=O)O)NC(=O)C(CC(=O)O)NC(=O)[C@@H](CNC(=O)CC[C@H](C(=O)O)N2CCN(CC(=O)O)CCN(CC(=O)O)CCN(CC(=O)O)CC2)NC(=O)C(CN)NC(=O)c2ccc([Si](F)(C(C)(C)C)C(C)(C)C)cc2)C(=O)N[C@@H](Cc2ccc(O)cc2)C(=O)NC(Cc2c[nH]c3ccccc23)C(=O)N[C@@H](CCCCN)C(=O)N[C@@H]([C@@H](C)O)C(=O)N1)C(=O)O` (stereo partly drawn) (natLu complex, metal not drawn) [[Lu]20] yielded an IC50 of 11 ± 5.69 nM. Compound `C[C@@H](O)[C@H](NC(=O)C1CSSCC(NC(=O)C(Cc2ccccc2)NC(=O)CNC(=O)CNC(=O)[C@@H](CC(=O)O)NC(=O)C(CC(=O)O)NC(=O)[C@@H](CNC(=O)CN2CCN(CC(=O)O)CCN(CC(=O)O)CCN(CC(=O)O)CC2)NC(=O)C[N+](C)(C)Cc2ccc([Si](F)(C(C)(C)C)C(C)(C)C)cc2)C(=O)N[C@@H](Cc2ccc(O)cc2)C(=O)NC(Cc2c[nH]c3ccccc23)C(=O)N[C@@H](CCCCN)C(=O)N[C@@H]([C@@H](C)O)C(=O)N1)C(=O)O` (stereo partly drawn) (natLu complex, metal not drawn) [[Lu]24] has an IC50 of 5.5 ± 0.76 nM. `C[C@@H](O)[C@H](NC(=O)C1CSSCC(NC(=O)C(Cc2ccccc2)NC(=O)CNC(=O)CNC(=O)CNC(=O)C(CC(=O)O)NC(=O)[C@@H](CC(=O)O)NC(=O)C(CNC(=O)C[N+](C)(C)Cc2ccc([Si](F)(C(C)(C)C)C(C)(C)C)cc2)NC(=O)CN2CCN(CC(=O)O)CCN(CC(=O)O)CCN(CC(=O)O)CC2)C(=O)N[C@@H](Cc2ccc(O)cc2)C(=O)NC(Cc2c[nH]c3ccccc23)C(=O)N[C@@H](CCCCN)C(=O)N[C@@H]([C@@H](C)O)C(=O)N1)C(=O)O` (stereo partly drawn) (natLu complex, metal not drawn) [[Lu]44] was tested, and the IC50 was 3.86 ± 0.23 nM. For `C[C@@H](O)[C@H](NC(=O)C1CSSCC(NC(=O)C(Cc2ccccc2)NC(=O)CNC(=O)CNC(=O)CNC(=O)C(CC(=O)O)NC(=O)[C@@H](CC(=O)O)NC(=O)C(CCCCN)NC(=O)[C@@H](CNC(=O)C[N+](C)(C)Cc2ccc([Si](F)(C(C)(C)C)C(C)(C)C)cc2)NC(=O)CN2CCN(CC(=O)O)CCN(CC(=O)O)CCN(CC(=O)O)CC2)C(=O)N[C@@H](Cc2ccc(O)cc2)C(=O)NC(Cc2c[nH]c3ccccc23)C(=O)N[C@@H](CCCCN)C(=O)N[C@@H]([C@@H](C)O)C(=O)N1)C(=O)O` (stereo partly drawn) (natLu complex, metal not drawn) [[Lu]45], the IC50 was 3.37 ± 0.35 nM. `C[C@@H](O)[C@H](NC(=O)C1CSSCC(NC(=O)C(Cc2ccccc2)NC(=O)CNC(=O)CNC(=O)CNC(=O)C(CC(=O)O)NC(=O)[C@@H](CC(=O)O)NC(=O)C(CCCNC(N)=O)NC(=O)[C@@H](CNC(=O)C[N+](C)(C)Cc2ccc([Si](F)(C(C)(C)C)C(C)(C)C)cc2)NC(=O)CN2CCN(CC(=O)O)CCN(CC(=O)O)CCN(CC(=O)O)CC2)C(=O)N[C@@H](Cc2ccc(O)cc2)C(=O)NC(Cc2c[nH]c3ccccc23)C(=O)N[C@@H](CCCCN)C(=O)N[C@@H]([C@@H](C)O)C(=O)N1)C(=O)O` (stereo partly drawn) (natLu complex, metal not drawn) [[Lu]46] gave an IC50 of 4.07 ± 0.52 nM. `C[C@@H](O)[C@H](NC(=O)C1CSSCC(NC(=O)C(Cc2ccccc2)NC(=O)CNC(=O)CNC(=O)CNC(=O)C(CC(=O)O)NC(=O)[C@@H](CC(=O)O)NC(=O)C(CCC(=O)O)NC(=O)[C@@H](CNC(=O)C[N+](C)(C)Cc2ccc([Si](F)(C(C)(C)C)C(C)(C)C)cc2)NC(=O)CN2CCN(CC(=O)O)CCN(CC(=O)O)CCN(CC(=O)O)CC2)C(=O)N[C@@H](Cc2ccc(O)cc2)C(=O)NC(Cc2c[nH]c3ccccc23)C(=O)N[C@@H](CCCCN)C(=O)N[C@@H]([C@@H](C)O)C(=O)N1)C(=O)O` (stereo partly drawn) (natLu complex, metal not drawn) [[Lu]47] gave an IC50 of 5.13 ± 0.51 nM.
